Results as given in patent publication US5688793A, “Pyridazino[4',5':3,4]pyrrolo-[2,1-a]-isoquinolines and the use thereof for preparing pharmaceutical preparations” (Boehringer Ingelheim GmbH, priority 1993, dated 1997).

These compounds were tested on unselective cation channels (UCC) (assay: Thapsigargin-stimulated calcium entry through unselective cation channels in fura-2-charged RBL-hm 1 cells). Conditions: 10^-5 M test substance, Thapsigargin (0.1 μM) stimulation.
Type: cell-based, rat
Protocol: For screening purposes, fura-2-charged adhesive RBL-hm 1 cells are stimulated with […] Thapsigargin in a Ca^2+ -free incubation medium. After 4 minutes, extracellular Ca^2+ is restored to a concentration of 1.5 mM and, using the fura-2-fluorescence, the excessive increase in the cytoplasmic Ca^2+ -concentration caused by a massive transmembranal Ca^2+ -entry through unselective cation channels is recorded.
The fluorometric calcium measurement in the cytoplasm of individual adhering RBL-hm1 cells is carried out analogously to the method described by KUDO and OGURA (1986) for neuronal cells. An AXIOVERT 35 fluorescence microscope made by ZEISS is used in conjunction with an imaging system made by HAMAMATSU, consisting of the ICMS-image processing system, residual light camera with control unit and image intensifier DVS 3000.
The kinetics of the cytoplasmic Ca^2+ -concentration is recorded continuously as a concentration/time curve after the cell activation stimulated by Thapsigargin (0.1 μM). […] The area under these curves (area under the curve=AUC) is integrated and recorded as a measurement of cell activation. The inhibitory potency of the UCC-blockers tested is determined using the following equation: [formula] […]
AUC control=area under the curve which is recorded only after the addition of the stimulant.
The percentage inhibition of UCC after Thapsigargin stimulation (0.1 μM Thapsigargin) in RBL-hm 1 cells is given. […]

Structure (SMILES) | % H (10^-5 M), percentage inhibition of the calcium entry through unselective cation channels [%]
COc1cc2c(cc1OC)-c1c3cnnc(SCCCCOc4ccccc4F)c3cn1CC2 | 61.6
COc1cc2c(cc1OC)-c1c3cnnc(SCc4ccc(Br)cc4)c3cn1CC2 | 62.9
COc1cc2c(cc1OC)-c1c3cnnc(SCc4cccc(Cl)c4)c3cn1CC2 | 81.9
COc1cc2c(cc1OC)-c1c3cnnc(SCc4ccc(F)cc4)c3cn1CC2 | 94.6
COc1cc2c(cc1OC)-c1c3cnnc(SCc4ccccc4)c3cn1CC2 | 97.5
COc1cc2c(cc1OC)-c1c3cnnc(OC)c3cn1CC2 [CH3 (X:O), 5,6-Dihydro-2,3,9-trimethoxypyridazino[4',5':3,4]-pyrrolo[2,1-a]isoquinoline] | 62.5
COc1cc2c(cc1OC)-c1c3cnnc(SC)c3cn1CC2 [CH3 (X:S), reference compound] | 46.4

Each compound was assayed on RBL-2H3-cells (assay: Antigen (DNP-BSA)-induced activation of sensitised RBL-2H3 cells, fluorometric cytoplasmic calcium measurement). Conditions: Rattus norvegicus, read-out: inhibition of the antigen-induced cell activation.
Type: cell-based
Protocol: Individual RBL-2H3-cells (a turnout cell line related to the mast cells) adhering to glass slides are used.
The cultivation and attachment of the RBL-2H3-cells are carried out by the method described by HIDE and BEAVEN (1991). In order to sensitise the adhesive RBL-2H3-cells the cells are incubated for 2 hours at ambient temperature with a 1:2000 diluted commercial gammaglobulin E-solution against a dinitrophenol-bovine serum albumin complex (DNP-BSA-antigen). The cells are then washed. By the addition of 0.1 ml of DNP-BSA-solution (10 μg/ml) there is a massive immunological cell activation which is mediated by a cytoplasmic Ca^2+ -overload. The fluorometric calcium measurement in the cytoplasm of individual adhering RBL-2H3-cells is carried out analogously to the method described by KUDO and OGURA (1986) for neuronal cells, which is also explained hereinbefore in this specification.
The comparison used in these investigations is (10 μM) chromoglycate which brings about an approximately 50% inhibition of the antigen-induced cell activation.

Structure (SMILES) | inhibition at 10 µM [%]
O=C(O)c1cc(=O)c2c(OCC(O)COc3cccc4oc(C(=O)O)cc(=O)c34)cccc2o1 [chromoglycate] | ~50
